The source of these data is publication PMC11220790 (Molecular Pharmaceutics, 2024).

Values after ≈ are worked out from the molar mass of the structure shown. Read-outs that look alike come from different tables or passages of the source.

A short description of data set [1]: physchem. The conditions noted are these: 37 °C, thermodynamic from solid.
The nature of data set [2]: Photostability in aqueous media (DTIC degradation / 2-AZA formation kinetics). In kind it is physicochemical. As to conditions: for kg, photogeneration rate constant for 2-AZA: 5 mM solution, phosphate buffer pH 6.8, UV irradiation 5 h. The method, then:
The mobile phase consisted of a mixture of 0.1% (v/v) aqueous formic acid solution (A) and acetonitrile (B), in a gradient elution mode (0.0–2.5 min: 0% B; 2.5–4.0 min: 0–6% B; 4.0–5.0 min: 6–0% B; and 5.0–7.0 min: 0% B), delivered at a flow rate of 0.8 mL min^–1. […] The method validation followed the ICH Q2 (R2) guideline.[31] The parameters selectivity, linearity, precision, accuracy, and limits of quantitation and detection were evaluated.
A triplicate of freshly prepared solutions at a concentration of 5 mM has been placed into clear glass vials and arranged at 30 cm from a black UV lamp (300 mm, 15 W) to be photoirradiated for 5 h.

The nature of data set [3]: Solid-state stability under accelerated degradation conditions (40 °C, 75% RH).
Data set [4] is described as follows: Thermal analysis (DSC and TG). It is filed as physicochemical. The method, then:
Thermogravimetric (TG) experiments were performed on a Shimadzu DTG-60 thermobalance, placing approximately 2.0 ± 0.2 mg of each sample in alumina pans and then heating at 10 °C min^–1 under a nitrogen flow (50 mL min^–1) from 25 to 600 °C. Differential scanning calorimetry (DSC) curves were obtained using a Shimadzu DSC-60 instrument. The samples (1.0 ± 0.2 mg) were placed in aluminum pans and heated at a constant rate of 10 °C min^–1 under a nitrogen flow (50 mL min^–1). According to TG data, the DSC measurements have been conducted until the degradation temperature of each compound. Shimadzu TA-60 software was employed in the data analysis.

The conditions of data set [5]: weak base; cited from earlier work.
The nature of data set [6]: Solid-state photodegradation test (black UV lamp chamber). As to conditions: for stability, % DTIC found / stability, % 2-AZA found: after 15 days in photostability chamber.
Data set [7] is described as follows: Intrinsic dissolution, rotating disk apparatus. It is filed as physicochemical. As to conditions: for IDR (intrinsic dissolution rate) pH 6.8: phosphate buffer pH 6.8, 37.0 ± 0.5 °C, 100 rpm. The method, then:
Intrinsic dissolution tests were carried out in triplicate using a rotating disk dissolution apparatus. […] The attachments containing the disks were immersed into 500 mL of phosphate buffer, pH 6.8, medium preheated at 37.0 ± 0.5 °C with the metallic rod rotating at 100 rpm.

Data set [8] is described as follows: pKa and ΔpKa between DTIC and coformers. The conditions noted are these: between DTIC and the coformer, Table S4.
The mark [9] stands for this setting: freshly prepared (initial) solid sample.
Where [10] appears, read: solid, after 90 days at 40 °C and 75% RH.

Broadly, the solubility is the concentration that dissolves in the medium under given conditions. Lower therefore signals little dissolved substance. In general, pKa refers to the negative logarithm of the acid dissociation constant.

For `CN(C)/N=N/c1[nH]cnc1C(N)=O` [DTIC, Dacarbazine, reference compound], the solubility at 24 h is 20.4 ± 0.2 mg/mL (≈ 112 mM) in data set [1] (HCl solution, pH 1.2, simulated gastric fluid) and 3.4 ± 0.2 mg/mL (≈ 18.7 mM) in data set [1] (acetate buffer, pH 4.5, aqueous buffer). For the same compound, the “kg, photogeneration rate constant for 2-AZA” value (from here on “kg … for 2-AZA”) in data set [2] amounted to 0.361 ± 0.04 mM h^–1. Moreover, the “photodegradation in solution under UV radiation (in words)” value in data set [2] (low-pH and diluted solutions) was “Complete and rapid photodegradation”. In addition, the “stability, % DTIC found” value is 100.0 ± 0.2% in data set [3] (setting [9]), 99.8 ± 0.3% in data set [3] (setting [10]) and 94.4 ± 0.5% in data set [6]. The “TG: thermally stable up to / mass loss begins at” value (“TG … to / mass loss begins at” for short) in data set [4] (10 °C min^–1, nitrogen flow) was 208 °C. For the same compound, in data set [4] (10 °C min^–1, nitrogen flow), the “Tonset of DSC exothermic degradation peak” value was found to be 210.8 °C. In addition, the “Tonset of TG mass loss” value in data set [4] (10 °C min^–1, nitrogen flow) came out at 206.5 °C. Further, in data set [4] (10 °C min^–1, nitrogen flow), the “decomposition temperature (DSC exothermic degradation peak)” value (“decomposition temperature” below) was found to be 215.5 °C. Further, the pKa in data set [5] is listed as 4.4. In data set [6] (15 days UV exposure), the “reduction in the drug content during the photostability test” value is listed as 5.6%. Besides, the “IDR (intrinsic dissolution rate) pH 6.8” value in data set [7] is 0.26 ± 0.02 mg cm^–2 min^–1.
In the case of `CN(C)N=Nc1nc[nH]c1C(N)=O.O=C(O)/C=C/C(=O)O` [DTIC-H2FUM, Dacarbazine-Fumaric Acid Cocrystal], in data set [2], the “kg … for 2-AZA” value amounted to 0.363 ± 0.02 mM h^–1. Besides, in data set [3] (setting [9]), the “stability, % DTIC found” value is given as 99.5 ± 0.3%. Also, the “stability, % DTIC found” value in data set [3] (setting [10]) was 99.2 ± 0.2%. In data set [4], the “Tonset of DSC exothermic degradation peak” value was 172.1 °C and the “decomposition temperature” value was 178.1 °C. In data set [4] (10 °C min^–1, nitrogen flow), the “TG … to / mass loss begins at” value is “around 163 °C” and the “Tonset of TG mass loss” value stood at 159.4 °C. In addition, in data set [6], the “stability, % 2-AZA found” value was 1.1 ± 0.1% and the “stability, % DTIC found” value was 97.3 ± 0.2%. Besides, in data set [7] (phosphate buffer pH 6.8), the “increase of IDR compared to DTIC” value is given as ~5.1 fold. Also, the “IDR (intrinsic dissolution rate) pH 6.8” value in data set [7] was 1.31 ± 0.05 mg cm^–2 min^–1.
`CN(C)N=Nc1nc[nH]c1C(N)=O.CN(C)N=Nc1nc[nH]c1C(N)=O.O.O.O.O.O=C(O)CC(O)(CC(=O)O)C(=O)O` [DTIC-HCIT, Dacarbazine Hydrogen-Citrate Salt-Cocrystal]: the “kg … for 2-AZA” value in data set [2] was found to be 0.338 ± 0.03 mM h^–1. Also, the “stability, % DTIC found” value in data set [3] (setting [9]) was determined as 99.8 ± 0.4%; in data set [3] (setting [10]), 96.0 ± 0.5%; in data set [6], 97.0 ± 0.4%. Moreover, in data set [6], the “stability, % 2-AZA found” value is 1.8 ± 0.2%. The “IDR compared with DTIC (in words)” value in data set [7] (phosphate buffer pH 6.8) is listed as “equivalent to those of DTIC”. The “IDR (intrinsic dissolution rate) pH 6.8” value in data set [7] is reported as 0.35 ± 0.01 mg cm^–2 min^–1.
As for `CN(C)N=Nc1[nH]cnc1C(N)=O.O=C(O)C=CC(=O)O` [DTIC-HMAL, Dacarbazine Hydrogen-Maleate Salt], in data set [2], the “kg … for 2-AZA” value is 0.371 ± 0.02 mM h^–1. The figures for the “stability, % DTIC found” value in data set [3] (setting [9]), in data set [3] (setting [10]) and in data set [6] were 99.6 ± 0.4%, 98.2 ± 0.4% and 98.4 ± 0.2%, respectively. The “stability, % 2-AZA found” value in data set [6] was determined as 1.7 ± 0.2%. The “increase of IDR compared to DTIC” value in data set [7] (phosphate buffer pH 6.8) is on record as “approximately 7.3 fold”. In data set [7], the “IDR (intrinsic dissolution rate) pH 6.8” value turned out to be 1.90 ± 0.06 mg cm^–2 min^–1.
Turning to `CN(C)N=Nc1[nH]cnc1C(N)=O.O=C(O)C(=O)O` [DTIC-HOXA, Dacarbazine Hydrogen-Oxalate Salt], the “kg … for 2-AZA” value in data set [2] is reported as 0.386 ± 0.03 mM h^–1. For the same compound, the “stability, % DTIC found” value in data set [3] (setting [9]) is 100.1 ± 0.1%. The “stability, % DTIC found” value in data set [3] (setting [10]) was determined as 99.9 ± 0.2%. In addition, in data set [4], the “Tonset of DSC exothermic degradation peak” value was found to be 170.2 °C and the “decomposition temperature” value turned out to be 175.0 °C. Besides, in data set [4] (10 °C min^–1, nitrogen flow), the “TG … to / mass loss begins at” value is “around 166 °C” and the “Tonset of TG mass loss” value was determined as 161.7 °C. In addition, in data set [6], the “stability, % 2-AZA found” value was 2.2 ± 0.4% and the “stability, % DTIC found” value is given as 97.1 ± 0.3%. Further, the “increase of IDR compared to DTIC” value in data set [7] (phosphate buffer pH 6.8) was found to be 22 fold. The “IDR (intrinsic dissolution rate) pH 6.8” value in data set [7] turned out to be 5.58 ± 0.08 mg cm^–2 min^–1.
Consider `O=C(O)/C=C/C(=O)O` [Fumaric acid], for which the “ΔpKa (pKa(base) − pKa(acid))” value in data set [8] is reported as 1.4.
Same read-out and setting: for `O=C(O)/C=C\C(=O)O` [Maleic acid] the value was 2.5.
